Laboratory results reported in publication PMC11732987, “Enantioselective OTUD7B fragment discovery through chemoproteomics screening and high-throughput optimisation” (Communications Chemistry, 2025).

How the values were obtained:
OTUD7B [1] = target: T1, OTUD7B (Homo sapiens, UniProt Q6GQQ9); experiment: Ub-Rho110Gly DUB activity assay; also intact protein LC-MS kinetics (kinact/KI […] ^-1 s^-1), SiteID LC-MS/MS, lysate ABPP (TE50 […]); format: biochemical; parameters: OTU domain; OTUD7B aa129-438 (intact protein LC-MS), aa129–538 (SiteID)
T1 sequence (Q6GQQ9 129-438): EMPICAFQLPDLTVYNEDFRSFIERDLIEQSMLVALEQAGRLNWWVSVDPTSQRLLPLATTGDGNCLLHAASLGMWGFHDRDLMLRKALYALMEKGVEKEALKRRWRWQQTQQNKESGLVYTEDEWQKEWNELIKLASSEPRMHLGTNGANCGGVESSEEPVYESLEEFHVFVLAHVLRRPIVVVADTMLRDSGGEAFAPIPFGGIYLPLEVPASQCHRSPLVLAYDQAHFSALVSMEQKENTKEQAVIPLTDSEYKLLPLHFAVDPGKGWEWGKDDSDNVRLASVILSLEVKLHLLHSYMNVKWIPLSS

OTUD7B [2] = target: T1, OTUD7B; experiment: Ub-Rho110Gly DUB activity assay; also intact protein LC-MS kinetics (kinact/KI […] ^-1 s^-1), lysate ABPP (TE50 […]); format: biochemical; parameters: OTUD7B aa129-438 (intact protein LC-MS)

| SMILES | IC50 (OTUD7B [1]) [µM] | IC50 (OTUD7B [2]) [µM] |
| --- | --- | --- |
| O=C(CCl)N[C@H]1CCCc2ccccc21 [compound 29] | 3.5 |  |
| O=C(CCl)N[C@@H]1CCCc2ccccc21 [compound 30] |  | 58.3 |
